Target: T1, H^+ +K^+ ATPase (Sus scrofa, UniProt P19156)
T1 construct: prepared from porcine stomach; from tissue; host or cells: porcine stomach
Test: H+ +K+ ATPase inhibition (inorganic phosphoric acid release)
Format: biochemical
Conditions: enzyme prepared from porcine stomach; 30 min with compound at room temperature, pH 6.1; then 30 min at 37° C., pH 7.4, 20 mM KCl
Experimental: H^+ +K^+ ATPase (adenosine triphosphatase) (amount of protein: 10 μg) prepared from porcine stomach was added to a Pipes-TRIS [i.e. 2-amino-2-(hydroxymethyl)-1,3-propanediol] buffer solution (pH 6.1) containing 2 mM of piperazine N,N'-bis(2-ethanesulfonic acid), and the mixture was let stand at room temperature. A test compound was dissolved in dimethyl formamide, and the mixture was added to said H^+ +K^+ ATPase buffer solution so that the final concentration should be 1% and let stand for reaction for 30 minutes at room temperature. Then a 75 mM Pipes-TRIS buffer (1 ml, pH 7.4) (containing 4 mM MgCl2, 4 mM Na2 ATP, and 20 mM KCl) and a 75 mM Pipes-TRIS buffer (1 ml, pH 7.4) (containing 4 mM MgCl2, and 4 mM Na2 ATP) were added to the solution individually to make two kinds of samples and these samples were presented for reaction for 30 minutes at 37° C. 40% Trichloroacetic acid (0.3 ml) was added to each sample to stop the reaction. The solution were subjected to centrifugal separation (3000 rpm) for 10 minutes, and the supernatant was taken off, then the formed inorganic phosphoric acid was measured by Fiske and Subbarow's method [J. Biol. Chem. vol. 66, 375 (1925)]. The value of deducting the amount of inorganic phosphoric acid taken from the Pipes-Tris buffer not containing 20 mM KCl from that taken from the Pipes-Tris buffer containing 20 mM KCl was calculated in terms of unit protein and unit hour to be defined as an activity index of enzyme. Inhibition level (%) in doses of administration was estimated by control values and activity indices of enzyme, and from the obtained inhibition level (%), IC50 (dose of administration of compounds to inhibit in 50%) was obtained.

T1 sequence (P19156 2-1034 limits assumed): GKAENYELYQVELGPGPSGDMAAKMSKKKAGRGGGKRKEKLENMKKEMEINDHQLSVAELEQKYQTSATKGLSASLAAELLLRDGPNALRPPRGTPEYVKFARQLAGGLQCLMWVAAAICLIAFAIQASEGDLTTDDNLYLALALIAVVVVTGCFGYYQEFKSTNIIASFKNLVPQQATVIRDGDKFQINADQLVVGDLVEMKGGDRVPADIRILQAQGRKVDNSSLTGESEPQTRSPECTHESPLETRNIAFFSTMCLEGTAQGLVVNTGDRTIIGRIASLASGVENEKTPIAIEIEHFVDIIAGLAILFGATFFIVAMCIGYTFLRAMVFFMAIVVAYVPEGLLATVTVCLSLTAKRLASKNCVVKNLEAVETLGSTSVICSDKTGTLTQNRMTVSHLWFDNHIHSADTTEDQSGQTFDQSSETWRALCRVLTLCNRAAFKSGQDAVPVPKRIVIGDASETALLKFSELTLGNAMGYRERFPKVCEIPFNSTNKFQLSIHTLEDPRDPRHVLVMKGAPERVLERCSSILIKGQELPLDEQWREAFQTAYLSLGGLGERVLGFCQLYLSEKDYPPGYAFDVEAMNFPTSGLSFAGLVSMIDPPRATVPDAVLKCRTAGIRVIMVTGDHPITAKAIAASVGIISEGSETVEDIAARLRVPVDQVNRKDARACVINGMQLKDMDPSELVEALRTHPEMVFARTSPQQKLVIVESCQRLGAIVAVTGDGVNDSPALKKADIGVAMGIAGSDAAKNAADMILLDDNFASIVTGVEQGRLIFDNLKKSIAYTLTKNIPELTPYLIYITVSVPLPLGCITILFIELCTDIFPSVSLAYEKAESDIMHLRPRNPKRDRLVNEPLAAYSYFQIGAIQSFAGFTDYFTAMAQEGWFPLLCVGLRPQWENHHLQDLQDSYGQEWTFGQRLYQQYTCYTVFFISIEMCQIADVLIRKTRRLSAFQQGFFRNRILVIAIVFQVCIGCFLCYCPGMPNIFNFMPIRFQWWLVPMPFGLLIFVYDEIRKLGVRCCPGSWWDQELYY
T1 sequence (P18434 whole entry partner): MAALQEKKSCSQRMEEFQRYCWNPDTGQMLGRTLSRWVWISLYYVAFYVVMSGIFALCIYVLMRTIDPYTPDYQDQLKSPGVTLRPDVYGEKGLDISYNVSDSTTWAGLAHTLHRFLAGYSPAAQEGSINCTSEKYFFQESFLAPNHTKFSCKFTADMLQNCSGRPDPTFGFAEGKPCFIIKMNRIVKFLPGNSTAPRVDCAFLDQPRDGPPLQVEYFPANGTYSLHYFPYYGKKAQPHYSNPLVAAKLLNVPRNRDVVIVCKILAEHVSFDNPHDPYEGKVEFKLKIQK

IC50 [µM] | Molecule
0.25 | [O-][S+](Cc1cccc2c1N(CC1CC1)CCC2)c1nc2ccccc2[nH]1 (stereo not shown) [Test compound No. 35, 1-cyclopropylmethyl-8-(2-benzimidazolyl)sulfinylmethyl-1,2,3,4-tetrahydroquinoline]
0.58 | C=CCN1CCCc2cccc(C[S+]([O-])c3nc4ccc(C)cc4[nH]3)c21 (stereo not shown) [Test compound No. 33, 1-allyl-8-(5-methyl-2-benzimidazolyl)sulfinylmethyl-1,2,3,4-tetrahydroquinoline]
1.1 | CCN1CCC(OC)c2cccc(C[S+]([O-])c3nc4ccccc4[nH]3)c21 (stereo not shown) [Test compound No. 48, 1-ethyl-8-(2-benzimidazolyl)sulfinylmethyl-4-methoxy-1,2,3,4-tetrahydroquinoline]
3.3 | C=CCNC1CCN(CC)c2c(C[S+]([O-])c3nc4ccc(C)cc4[nH]3)cccc21 (stereo not shown) [Test compound No. 60, 1-ethyl-8-(5-methyl-2-benzimidazolyl)sulfinylmethylmethyl-4-allylamino-1,2,3,4-tetrahydroquinoline]
0.96 | C=CCN1CCCc2cccc(C[S+]([O-])c3nc4ccc(OC)cc4[nH]3)c21 (stereo not shown) [Test compound No. 22, 1-allyl-8-(5-methoxy-2-benzimidazolyl)sulfinylmethyl-1,2,3,4-tetrahydroquinoline]
0.33 | CCCCN1CCCc2cccc(C[S+]([O-])c3nc4ccc(C)cc4[nH]3)c21 (stereo not shown) [Test compound No. 25, 1-n-butyl-8-(5-methyl-2-benzimidazolyl)sulfinylmethyl-1,2,3,4-tetrahydroquinoline]
0.13 | CC1=CCN(C)c2c(C[S+]([O-])c3nc4ccc(C)cc4[nH]3)cccc21 (stereo not shown) [Test compound No. 39, 1,4-dimethyl-8-(5-methyl-2-benzimidazolyl)sulfinylmethyl-1,2-dihydroquinoline]
5.9 | CCN1CC(C(=O)N2CCCCC2)Cc2cccc(C[S+]([O-])c3nc4ccccc4[nH]3)c21 (stereo not shown) [Test compound No. 58, 1-ethyl-8-(2-benzimidazolyl)sulfinylmethyl-3-(1-piperizinyl)carbonyl-1,2,3,4-tetrahydroquinoline]
3.8 | C=CCN(Cc1ccc(OC)cc1)C1CCN(CC)c2c(C[S+]([O-])c3nc4cc(F)c(OC)cc4[nH]3)cccc21 (stereo not shown) [Test compound No. 70, 1-ethyl-8-(5-fluoro-6-methoxy-2-benzimidazolyl)sulfinylmethyl-4-[N-allyl-N-(4-methoxybenzyl)]amino1,2,3,4-tetrahydroquinoline]
4 | C=CCN1CCC(OC)c2cccc(C[S+]([O-])c3nc4ccc(C)cc4[nH]3)c21 (stereo not shown) [Test compound No. 62, 1-allyl-8-(5-methyl-2-benzimidazolyl)sulfinylmethylmethyl-4-methoxy-1,2,3,4-tetrahydroquinoline]
5.1 | CCN1CC(C(=O)N(C)C)Cc2cccc(C[S+]([O-])c3nc4ccccc4[nH]3)c21 (stereo not shown) [Test compound No. 55, 1-ethyl-8-(2-benzimidazolyl)sulfinylmethyl-3-dimethylcarbamoyl-1,2,3,4-tetrahydroquinoline 1/3-hydrate]
1.5 | CCN1CCC(c2ccccc2)c2cccc(C[S+]([O-])c3nc4ccc(C)cc4[nH]3)c21 (stereo not shown) [Test compound No. 47, 1-ethyl-8-(5-methyl-2-benzimidazolyl)sulfinylmethyl-4-phenyl-1,2,3,4-tetrahydroquinoline]
2.2 | CCN1CCCc2cccc(C[S+]([O-])c3nc4ccc(C(C)=O)cc4[nH]3)c21 (stereo not shown) [Test compound No. 9, 1-ethyl-8-(5-acetyl-2-benzimidazolyl)sulfinylmethyl-1,2,3,4-tetrahydroquinoline]
0.37 | CCN1CCCc2cccc(C[S+]([O-])c3nc4ccc(C(F)(F)F)cc4[nH]3)c21 (stereo not shown) [Test compound No. 10, 1-ethyl-8-(5-trifluoromethyl-2-benzimidazolyl)sulfinylmethyl-1,2,3,4-tetrahydroquinoline]
0.18 | CCCCN1CCCc2cccc(C[S+]([O-])c3nc4ccccc4[nH]3)c21 (stereo not shown) [Test compound No. 24, 1-n-butyl-8-(2-benzimidazolyl)sulfinylmethyl-1,2,3,4-tetrahydroquinoline]
0.92 | CCN1CCCc2cc(C)cc(C[S+]([O-])c3nc4ccccc4[nH]3)c21 (stereo not shown) [Test compound No. 32, 1-ethyl-6-methyl-8-(2-benzimidazolyl)sulfinylmethyl-1,2,3,4-tetrahydroquinoline]

IC50 [µM] | Molecule
0.49 | C=CCN1CCCc2cccc(C[S+]([O-])c3nc4ccc(F)cc4[nH]3)c21 (stereo not shown) [Test compound No. 23, 1-allyl-8-(5-fluoro-2-benzimidazolyl)sulfinylmethyl-1,2,3,4-tetrahydroquinoline]
0.61 | 1,4-dimethyl-8-(5-fluoro-6-methyl-2-benzimidazolyl)sulfinylmethyl-1,2,3,4- tetrahydroquinoline [Test compound No. 30]
0.22 | CCN1CCCc2cccc(C[S+]([O-])c3nc4ccc(Cl)cc4[nH]3)c21 (stereo not shown) [Test compound No. 8, 1-ethyl-8-(5-chloro-2-benzimidazolyl)sulfinylmethyl-1,2,3,4-tetrahydroquinoline]
6.4 | CCN1CCCc2cc(Br)cc(C[S+]([O-])c3nc4ccccc4[nH]3)c21 (stereo not shown) [Test compound No. 31, 1-ethyl-6-bromo-8-(2-benzimidazolyl)sulfinylmethyl-1,2,3,4-tetrahydroquinoline]
0.18 | CCN1CCCc2cccc(C[S+]([O-])c3nc4ccc(C)cc4[nH]3)c21 (stereo not shown) [Test compound No. 2, 1-ethyl-8-(5-methyl-2-benzimidazolyl)sulfinylmethyl-1,2,3,4-tetrahydroquinoline]
3.9 | C=C1CCN(CC)c2c(C[S+]([O-])c3nc4ccccc4[nH]3)cccc21 (stereo not shown) [Test compound No. 52, 1-ethyl-8-(2-benzimidazolyl)sulfinylmethyl-4-methylene-1,2,3,4-tetrahydroquinoline]
0.33 | C=CCN1CCCc2cccc(C[S+]([O-])c3nc4ccccc4[nH]3)c21 (stereo not shown) [Test compound No. 21, 1-allyl-8-(2-benzimidazolyl)sulfinylmethyl-1,2,3,4-tetrahydroquinoline]
1.8 | CCC1(O)CCN(C)c2c(C[S+]([O-])c3nc4ccccc4[nH]3)cccc21 (stereo not shown) [Test compound No. 46, 1-methyl-8-(2-benzimidazolyl)sulfinylmethyl-4-ethyl-4-hydroxy-1,2,3,4-tetrahydroquinoline]
0.2 | CN1CCCc2cccc(C[S+]([O-])c3nc4ccc(Cl)cc4[nH]3)c21 (stereo not shown) [Test compound No. 18, 1-methyl-8-(5-chloro-2-benzimidazolyl)sulfinylmethyl-1,2,3,4-tetrahydroquinoline]
0.42 | CCN1CCCc2cccc(C[S+]([O-])c3nc4cc(C)cc(C)c4[nH]3)c21 (stereo not shown) [Test compound No. 12, 1-ethyl-8-(4,6-dimethyl-2-benzimidazolyl)sulfinylmethyl-1,2,3,4-tetrahydroquinoline]
4.9 | CCOC(N(C)C1CCN(CC)c2c(C[S+]([O-])c3nc4cc(F)c(OC)cc4[nH]3)cccc21)C(F)(F)F (stereo not shown) [Test compound No. 69, 1-ethyl-8-(5-fluoro-6-methoxy-2-benzimidazolyl)sulfinylmethyl-4-[N-methyl-N-(2,2,2-trifluoro-1ethoxyethyl)]amino-1,2,3,4-tetrahydroquinoline]
4.9 | CCN1CC(C(=O)OC)Cc2cccc(C[S+]([O-])c3nc4ccccc4[nH]3)c21 (stereo not shown) [Test compound No. 53, 1-ethyl-8-(2-benzimidazolyl)sulfinylmethyl-3-methoxycarbonyl-1,2,3,4-tetrahydroquinoline]
4 | CCN1CCC(N(C)C2CC2)c2cccc(C[S+]([O-])c3nc4cc(F)c(OC)cc4[nH]3)c21 (stereo not shown) [Test compound No. 64, 1-ethyl-8-(5-fluoro-6-methoxy-2-benzimidazolyl)sulfinylmethyl-4-(N-methyl-N-cyclopropyl)amino-1,2,3,4-tetrahydroquinoline]
0.65 | Cc1ccc2nc([S+]([O-])Cc3cccc4c3N(Cc3ccccc3)CCC4)[nH]c2c1 (stereo not shown) [Test compound No. 28, 1-benzyl-8-(5-methyl-2-benzimidazolyl)sulfinylmethyl-1,2,3,4-tetrahydroquinoline]
1 | CCN1CCCc2cccc(C[S+]([O-])c3nc4ccc(F)cc4[nH]3)c21 (stereo not shown) [Test compound No. 4, 1-ethyl-8-(5-fluoro-2-benzimidazolyl)sulfinylmethyl-1,2,3,4-tetrahydroquinoline]

From patent US4963566A, “Benzimidazolyl-sulfinyl-tetrahydroquinolines” (Otsuka Pharmaceutical Co., Ltd., priority 1986, dated 1990)
